Data as given in PubChem BioAssay (NCI).
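At the GI50, growth is halved. TGI is the concentration that stops growth completely.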

Assays:
Assay in all cases: NCI-60 cell line screen, 384-well format
UACC-257 melanoma = tested on: UACC-257 melanoma
SR leukemia = tested on: SR leukemia
HCC-2998 colon = tested on: HCC-2998 colon
LOX IMVI melanoma = tested on: LOX IMVI melanoma
IGROV1 ovarian = tested on: IGROV1 ovarian
MALME-3M melanoma = tested on: MALME-3M melanoma
MCF7 breast = tested on: MCF7 breast
NCI-H226 lung = tested on: NCI-H226 lung
SK-OV-3 ovarian = tested on: SK-OV-3 ovarian
SW-620 colon = tested on: SW-620 colon
NCI-H522 lung = tested on: NCI-H522 lung
MDA-MB-231 breast = tested on: MDA-MB-231 breast
SNB-75 CNS = tested on: SNB-75 CNS

SMILES: O=C(c1ccccc1O)c1[nH]c(Cl)c(Cl)c1-n1c(C(=O)c2ccccc2O)cc(Cl)c1Cl
- GI50 (UACC-257 melanoma): 461 nM
- TGI (UACC-257 melanoma): 1650 nM
- GI50 (SR leukemia): 340 nM
- TGI (SR leukemia): 1100 nM
- GI50 (HCC-2998 colon): 537 nM
- TGI (HCC-2998 colon): 1950 nM
- GI50 (LOX IMVI melanoma): 833 nM
- TGI (LOX IMVI melanoma): 2330 nM
- GI50 (IGROV1 ovarian): 521 nM
- TGI (IGROV1 ovarian): 8560 nM
- GI50 (MALME-3M melanoma): 670 nM
- TGI (MALME-3M melanoma): 2170 nM
- GI50 (MCF7 breast): 263 nM
- TGI (MCF7 breast): 1230 nM
- GI50 (NCI-H226 lung): 634 nM
- TGI (NCI-H226 lung): 1890 nM
- GI50 (SK-OV-3 ovarian): 641 nM
- TGI (SK-OV-3 ovarian): 2210 nM
- GI50 (SW-620 colon): 367 nM
- TGI (SW-620 colon): 1540 nM
- GI50 (NCI-H522 lung): 174 nM
- TGI (NCI-H522 lung): 536 nM
- GI50 (MDA-MB-231 breast): 424 nM
- TGI (MDA-MB-231 breast): 1450 nM
- GI50 (SNB-75 CNS): 487 nM
- TGI (SNB-75 CNS): 2440 nM
